According to patent US8362031B2, “Lonidamine analogues and treatment of polycystic kidney disease” (University of Kansas, priority 2004, dated 2013):

System: male rats
Test: Fertility trials following oral administration (challenge mating)
Type: in vivo, rat
Settings: for MALES MATED/MALES FERTILE: Table 9C
Description: The following table illustrates the results of a single oral does of 6 mg/kg of RC-MC-110 orally to male rats. […] The ethyl alcohol was evaporated 10% prior to administration. The “embryos normal” and “embryos abnormal” represents the mean number of embryos per pregnant female. […]
The following table illustrates the results of a single oral does of four different doses of RC-MC-110 orally to male rats.

[1] = Table 9A, seven consecutive daily oral doses of 6 mg/day, week 1
[2] = Table 9A, seven consecutive daily oral doses of 6 mg/day, week 2
[3] = Table 9A, seven consecutive daily oral doses of 6 mg/day, week 3
[4] = Table 9A, seven consecutive daily oral doses of 6 mg/day, week 4
[5] = Table 9A, seven consecutive daily oral doses of 6 mg/day, week 5
[6] = Table 9A, seven consecutive daily oral doses of 6 mg/day, week 6
[7] = Table 9A, seven consecutive daily oral doses of 6 mg/day, week 7
[8] = Table 9A, seven consecutive daily oral doses of 6 mg/day, week 8
[9] = Table 9A, seven consecutive daily oral doses of 6 mg/day, week 9
[10] = Table 9A, seven consecutive daily oral doses of 6 mg/day, week 10
[11] = Table 9A, seven consecutive daily oral doses of 6 mg/day, week 12
[12] = Table 9A, seven consecutive daily oral doses of 6 mg/day, week 13
[13] = Table 9A, seven consecutive daily oral doses of 6 mg/day, week 14
[14] = Table 9A, seven consecutive daily oral doses of 6 mg/day, week 18
[15] = Table 9B, single oral dose of 6 mg/kg, week 1
[16] = Table 9B, single oral dose of 6 mg/kg, week 2
[17] = Table 9B, single oral dose of 6 mg/kg, week 3
[18] = Table 9B, single oral dose of 6 mg/kg, week 4
[19] = Table 9B, single oral dose of 6 mg/kg, week 5
[20] = Table 9B, single oral dose of 6 mg/kg, week 6
[21] = Table 9B, single oral dose of 6 mg/kg, week 7
[22] = Table 9B, single oral dose of 6 mg/kg, week 8
[23] = Table 9B, single oral dose of 6 mg/kg, week 9
[24] = Table 9B, single oral dose of 6 mg/kg, week 10
[25] = Table 9B, single oral dose of 6 mg/kg, week 12
[26] = Table 9B, single oral dose of 6 mg/kg, week 13
[27] = Table 9B, single oral dose of 6 mg/kg, week 14
[28] = Table 9B, single oral dose of 6 mg/kg, week 18
[29] = Table 9B, single oral dose of 6 mg/kg, week 26

SMILES: O=C(O)/C=C/c1nn(Cc2ccc(Cl)cc2Cl)c2cc(C(F)(F)F)ccc12 [RC-MC-110, trans 3-[1-(2,4-dichlorobenzyl)-6-trifluoromethyl-1H-indazol-3-yl]-acrylic acid]
- Embryos abnormal (mean number per pregnant female) [1]: 0.2
- Embryos normal (mean number per pregnant female) [1]: 15
- Males fertile (Table 9A, seven consecutive daily oral doses of 6 mg/day, week 1, 7 males mated): 7
- Embryos abnormal (mean number per pregnant female) [2]: 0.3
- Embryos normal (mean number per pregnant female) [2]: 13
- Males fertile (Table 9A, seven consecutive daily oral doses of 6 mg/day, week 2, 7 males mated): 7
- Embryos abnormal (mean number per pregnant female) [3]: 0
- Embryos normal (mean number per pregnant female) [3]: 7
- Males fertile (Table 9A, seven consecutive daily oral doses of 6 mg/day, week 3, 7 males mated): 2
- Embryos abnormal (mean number per pregnant female) [4]: 0.5
- Embryos normal (mean number per pregnant female) [4]: 7
- Males fertile (Table 9A, seven consecutive daily oral doses of 6 mg/day, week 4, 7 males mated): 3
- Embryos abnormal (mean number per pregnant female) [5]: 0
- Embryos normal (mean number per pregnant female) [5]: 0
- Males fertile (Table 9A, seven consecutive daily oral doses of 6 mg/day, week 5, 7 males mated): 0
- Embryos abnormal (mean number per pregnant female) [6]: 0
- Embryos normal (mean number per pregnant female) [6]: 0
- Males fertile (Table 9A, seven consecutive daily oral doses of 6 mg/day, week 6, 7 males mated): 0
- Embryos abnormal (mean number per pregnant female) [7]: 0
- Embryos normal (mean number per pregnant female) [7]: 0
- Males fertile (Table 9A, seven consecutive daily oral doses of 6 mg/day, week 7, 7 males mated): 0
- Embryos abnormal (mean number per pregnant female) [8]: 0
- Embryos normal (mean number per pregnant female) [8]: 0
- Males fertile (Table 9A, seven consecutive daily oral doses of 6 mg/day, week 8, 6 males mated): 0
- Embryos abnormal (mean number per pregnant female) [9]: 1
- Embryos normal (mean number per pregnant female) [9]: 9
- Males fertile (Table 9A, seven consecutive daily oral doses of 6 mg/day, week 9, 7 males mated): 1
- Embryos abnormal (mean number per pregnant female) [10]: 0
- Embryos normal (mean number per pregnant female) [10]: 2
- Males fertile (Table 9A, seven consecutive daily oral doses of 6 mg/day, week 10, 7 males mated): 1
- Embryos abnormal (mean number per pregnant female) [11]: 0.3
- Embryos normal (mean number per pregnant female) [11]: 14
- Males fertile (Table 9A, seven consecutive daily oral doses of 6 mg/day, week 12, 7 males mated): 2
- Embryos abnormal (mean number per pregnant female) [12]: 0.3
- Embryos normal (mean number per pregnant female) [12]: 15
- Males fertile (Table 9A, seven consecutive daily oral doses of 6 mg/day, week 13, 7 males mated): 2
- Embryos abnormal (mean number per pregnant female) [13]: 0
- Embryos normal (mean number per pregnant female) [13]: 14
- Males fertile (Table 9A, seven consecutive daily oral doses of 6 mg/day, week 14, 7 males mated): 2
- Embryos abnormal (mean number per pregnant female) [14]: 0
- Embryos normal (mean number per pregnant female) [14]: 14
- Males fertile (Table 9A, seven consecutive daily oral doses of 6 mg/day, week 18, 7 males mated): 2
- Embryos abnormal (mean number per pregnant female) [15]: 0.2
- Embryos normal (mean number per pregnant female) [15]: 15
- Males fertile (Table 9B, single oral dose of 6 mg/kg, week 1, 7 males mated): 7
- Embryos abnormal (mean number per pregnant female) [16]: 0.3
- Embryos normal (mean number per pregnant female) [16]: 12
- Males fertile (Table 9B, single oral dose of 6 mg/kg, week 2, 7 males mated): 7
- Embryos abnormal (mean number per pregnant female) [17]: 2
- Embryos normal (mean number per pregnant female) [17]: 6
- Males fertile (Table 9B, single oral dose of 6 mg/kg, week 3, 7 males mated): 2
- Embryos abnormal (mean number per pregnant female) [18]: 0
- Embryos normal (mean number per pregnant female) [18]: 0
- Males fertile (Table 9B, single oral dose of 6 mg/kg, week 4, 7 males mated): 0
- Embryos abnormal (mean number per pregnant female) [19]: 0
- Embryos normal (mean number per pregnant female) [19]: 0
- Males fertile (Table 9B, single oral dose of 6 mg/kg, week 5, 7 males mated): 0
- Embryos abnormal (mean number per pregnant female) [20]: 1
- Embryos normal (mean number per pregnant female) [20]: 10
- Males fertile (Table 9B, single oral dose of 6 mg/kg, week 6, 7 males mated): 1
- Embryos abnormal (mean number per pregnant female) [21]: 0
- Embryos normal (mean number per pregnant female) [21]: 13
- Males fertile (Table 9B, single oral dose of 6 mg/kg, week 7, 7 males mated): 2
- Embryos abnormal (mean number per pregnant female) [22]: 1
- Embryos normal (mean number per pregnant female) [22]: 12
- Males fertile (Table 9B, single oral dose of 6 mg/kg, week 8, 7 males mated): 3
- Embryos abnormal (mean number per pregnant female) [23]: 0.4
- Embryos normal (mean number per pregnant female) [23]: 12
- Males fertile (Table 9B, single oral dose of 6 mg/kg, week 9, 7 males mated): 4
- Embryos abnormal (mean number per pregnant female) [24]: 1
- Embryos normal (mean number per pregnant female) [24]: 11
- Males fertile (Table 9B, single oral dose of 6 mg/kg, week 10, 7 males mated): 3
- Embryos abnormal (mean number per pregnant female) [25]: 0.1
- Embryos normal (mean number per pregnant female) [25]: 14
- Males fertile (Table 9B, single oral dose of 6 mg/kg, week 12, 7 males mated): 4
- Embryos abnormal (mean number per pregnant female) [26]: 1.0
- Embryos normal (mean number per pregnant female) [26]: 14
- Males fertile (Table 9B, single oral dose of 6 mg/kg, week 13, 7 males mated): 3
- Embryos abnormal (mean number per pregnant female) [27]: 0.7
- Embryos normal (mean number per pregnant female) [27]: 11
- Males fertile (Table 9B, single oral dose of 6 mg/kg, week 14, 7 males mated): 4
- Embryos abnormal (mean number per pregnant female) [28]: 0.7
- Embryos normal (mean number per pregnant female) [28]: 14
- Males fertile (Table 9B, single oral dose of 6 mg/kg, week 18, 7 males mated): 4
- Embryos abnormal (mean number per pregnant female) [29]: 0.6
- Embryos normal (mean number per pregnant female) [29]: 13
- Males fertile (Table 9B, single oral dose of 6 mg/kg, week 26, 7 males mated): 3
- MALES MATED/MALES FERTILE (single oral dose 0.75 MG/KG in 10% ethyl alcohol and sesame oil, week 1): 6/6
- MALES MATED/MALES FERTILE (single oral dose 0.75 MG/KG in 10% ethyl alcohol and sesame oil, week 2): 8/8
- MALES MATED/MALES FERTILE (single oral dose 0.75 MG/KG in 10% ethyl alcohol and sesame oil, week 3): 6/6
- MALES MATED/MALES FERTILE (single oral dose 0.75 MG/KG in 10% ethyl alcohol and sesame oil, week 4): 6/6
- MALES MATED/MALES FERTILE (single oral dose 0.75 MG/KG in 10% ethyl alcohol and sesame oil, week 5): 6/6
- MALES MATED/MALES FERTILE (single oral dose 0.75 MG/KG in 10% ethyl alcohol and sesame oil, week 6): 6/6
- MALES MATED/MALES FERTILE (single oral dose 0.75 MG/KG in 10% ethyl alcohol and sesame oil, week 7): 6/6
- MALES MATED/MALES FERTILE (single oral dose 0.75 MG/KG in 10% ethyl alcohol and sesame oil, week 8): 6/6
- MALES MATED/MALES FERTILE (single oral dose 1.5 MG/KG in 10% ethyl alcohol and sesame oil, week 1): 6/5
- MALES MATED/MALES FERTILE (single oral dose 1.5 MG/KG in 10% ethyl alcohol and sesame oil, week 2): 6/6
- MALES MATED/MALES FERTILE (single oral dose 1.5 MG/KG in 10% ethyl alcohol and sesame oil, week 3): 6/5
- MALES MATED/MALES FERTILE (single oral dose 1.5 MG/KG in 10% ethyl alcohol and sesame oil, week 4): 6/5
- MALES MATED/MALES FERTILE (single oral dose 1.5 MG/KG in 10% ethyl alcohol and sesame oil, week 5): 6/6
- MALES MATED/MALES FERTILE (single oral dose 1.5 MG/KG in 10% ethyl alcohol and sesame oil, week 6): 6/6
- MALES MATED/MALES FERTILE (single oral dose 1.5 MG/KG in 10% ethyl alcohol and sesame oil, week 7): 6/6
- MALES MATED/MALES FERTILE (single oral dose 1.5 MG/KG in 10% ethyl alcohol and sesame oil, week 8): 6/6
- MALES MATED/MALES FERTILE (single oral dose 1.5 MG/KG in 10% ethyl alcohol and sesame oil, week 9): 6/6
- MALES MATED/MALES FERTILE (single oral dose 3.0 MG/KG in 10% ethyl alcohol and sesame oil, week 1): 6/6
- MALES MATED/MALES FERTILE (single oral dose 3.0 MG/KG in 10% ethyl alcohol and sesame oil, week 2): 6/6
- MALES MATED/MALES FERTILE (single oral dose 3.0 MG/KG in 10% ethyl alcohol and sesame oil, week 3): 6/3
- MALES MATED/MALES FERTILE (single oral dose 3.0 MG/KG in 10% ethyl alcohol and sesame oil, week 4): 6/2
- MALES MATED/MALES FERTILE (single oral dose 3.0 MG/KG in 10% ethyl alcohol and sesame oil, week 5): 6/6
- MALES MATED/MALES FERTILE (single oral dose 3.0 MG/KG in 10% ethyl alcohol and sesame oil, week 6): 6/6
- MALES MATED/MALES FERTILE (single oral dose 3.0 MG/KG in 10% ethyl alcohol and sesame oil, week 7): 6/6
- MALES MATED/MALES FERTILE (single oral dose 3.0 MG/KG in 10% ethyl alcohol and sesame oil, week 8): 6/6
- MALES MATED/MALES FERTILE (single oral dose 3.0 MG/KG in 10% ethyl alcohol and sesame oil, week 9): 6/6
- MALES MATED/MALES FERTILE (single oral dose 6.0 MG/KG in 10% ethyl alcohol and sesame oil, week 1): 7/7
- MALES MATED/MALES FERTILE (single oral dose 6.0 MG/KG in 10% ethyl alcohol and sesame oil, week 2): 7/7
- MALES MATED/MALES FERTILE (single oral dose 6.0 MG/KG in 10% ethyl alcohol and sesame oil, week 3): 7/2
- MALES MATED/MALES FERTILE (single oral dose 6.0 MG/KG in 10% ethyl alcohol and sesame oil, week 4): 7/0
- MALES MATED/MALES FERTILE (single oral dose 6.0 MG/KG in 10% ethyl alcohol and sesame oil, week 5): 7/0
- MALES MATED/MALES FERTILE (single oral dose 6.0 MG/KG in 10% ethyl alcohol and sesame oil, week 6): 7/1
- MALES MATED/MALES FERTILE (single oral dose 6.0 MG/KG in 10% ethyl alcohol and sesame oil, week 7): 7/2
- MALES MATED/MALES FERTILE (single oral dose 6.0 MG/KG in 10% ethyl alcohol and sesame oil, week 8): 7/3
- MALES MATED/MALES FERTILE (single oral dose 6.0 MG/KG in 10% ethyl alcohol and sesame oil, week 9): 7/4
- MALES MATED/MALES FERTILE (single oral dose 6.0 MG/KG in 10% ethyl alcohol and sesame oil, week 10): 7/3
- MALES MATED/MALES FERTILE (single oral dose 6.0 MG/KG in 10% ethyl alcohol and sesame oil, week 12): 7/4
- MALES MATED/MALES FERTILE (single oral dose 6.0 MG/KG in 10% ethyl alcohol and sesame oil, week 13): 7/3
- MALES MATED/MALES FERTILE (single oral dose 6.0 MG/KG in 10% ethyl alcohol and sesame oil, week 14): 7/4
